Experimental data from ChEMBL document CHEMBL1201862, “PubChem BioAssay data set” (2004).
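Each compound was tested at five concentrations against cells in 96-well plates for 48 hours. GI50 is the concentration that inhibits growth by half.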 The source made the active and inactive calls. Cut-off read from the data, not from the text of the source: active = GI50 up to about 1.1 µM and inactive = higher.

How the values were obtained:
Assay in all cases: DTP human tumour cell line panel, 48 h
SR = system: SR
PC-3 = system: PC-3
UO-31 = system: UO-31
OVCAR-5 = system: OVCAR-5
OVCAR-4 = system: OVCAR-4
MOLT-4 = system: MOLT-4
IGROV-1 = system: IGROV-1
COLO 205 = system: COLO 205
OVCAR-3 = system: OVCAR-3
SF-539 = system: SF-539
OVCAR-8 = system: OVCAR-8
LOX IMVI = system: LOX IMVI
A549 = system: A549
EKVX = system: EKVX
A498 = system: A498
CAKI-1 = system: CAKI-1
MDA-MB-435 = system: MDA-MB-435
NCI-H522 = system: NCI-H522
RPMI-8226 = system: RPMI-8226
HCC 2998 = system: HCC 2998
MDA-N = system: MDA-N
UACC-257 = system: UACC-257
SF-268 = system: SF-268
NCI-H226 = system: NCI-H226
KM12 = system: KM12
HCT-15 = system: HCT-15
SK-OV-3 = system: SK-OV-3
786-0 = system: 786-0
K562 = system: K562
NCI/ADR-RES = system: NCI/ADR-RES
NCI-H23 = system: NCI-H23
MCF7 = system: MCF7
SF-295 = system: SF-295
ACHN = system: ACHN
SK-MEL-5 = system: SK-MEL-5
BT-549 = system: BT-549
NCI-H460 = system: NCI-H460
U-251 = system: U-251
UACC-62 = system: UACC-62
CCRF-CEM = system: CCRF-CEM
HCT-116 = system: HCT-116
M14 = system: M14
SN12C = system: SN12C
Hs-578T = system: Hs-578T
SK-MEL-28 = system: SK-MEL-28
TK-10 = system: TK-10
SK-MEL-2 = system: SK-MEL-2
T47D = system: T47D
HOP-92 = system: HOP-92
HL-60 = system: HL-60
SNB-19 = system: SNB-19
HOP-62 = system: HOP-62
Malme-3M = system: Malme-3M
DU-145 = system: DU-145
HT-29 = system: HT-29
MDA-MB-231 = system: MDA-MB-231
SNB-75 = system: SNB-75
SW-620 = system: SW-620
RXF 393 = system: RXF 393

SMILES: C/C(=N\NC(=S)Nc1ccc(Cl)cc1)c1nc2cccnc2[nH]1
- GI50 (SR): 0.92 µM (active)
- GI50 (PC-3): 1.39 µM (inactive)
- GI50 (UO-31): 0.713 µM (active)
- GI50 (OVCAR-5): 2.29 µM (inactive)
- GI50 (OVCAR-4): 5.64 µM (inactive)
- GI50 (MOLT-4): 0.687 µM (active)
- GI50 (IGROV-1): 3.08 µM (inactive)
- GI50 (COLO 205): 4.07 µM (inactive)
- GI50 (OVCAR-3): 0.352 µM (active)
- GI50 (SF-539): 0.938 µM (active)
- GI50 (OVCAR-8): 1.45 µM (inactive)
- GI50 (LOX IMVI): 1.23 µM (inactive)
- GI50 (A549): 2.38 µM (inactive)
- GI50 (EKVX): 0.608 µM (active)
- GI50 (A498): 6.21 µM (inactive)
- GI50 (CAKI-1): 1.53 µM (inactive)
- GI50 (MDA-MB-435): 3.44 µM (inactive)
- GI50 (NCI-H522): 6.89 µM (inactive)
- GI50 (RPMI-8226): 3.27 µM (inactive)
- GI50 (HCC 2998): 1.3 µM (inactive)
- GI50 (MDA-N): 5.13 µM (inactive)
- GI50 (UACC-257): 2.28 µM (inactive)
- GI50 (SF-268): 0.438 µM (active)
- GI50 (NCI-H226): 1.77 µM (inactive)
- GI50 (KM12): 1.23 µM (inactive)
- GI50 (HCT-15): 2.39 µM
- GI50 (SK-OV-3): 4.31 µM (inactive)
- GI50 (786-0): 2.17 µM (inactive)
- GI50 (K562): 3.33 µM (inactive)
- GI50 (NCI/ADR-RES): 2.65 µM (inactive)
- GI50 (NCI-H23): 1.89 µM (inactive)
- GI50 (MCF7): 2.69 µM (inactive)
- GI50 (SF-295): 2.15 µM (inactive)
- GI50 (ACHN): 0.822 µM (active)
- GI50 (SK-MEL-5): 1.67 µM (inactive)
- GI50 (BT-549): 1.76 µM (inactive)
- GI50 (NCI-H460): 0.665 µM (active)
- GI50 (U-251): 0.773 µM (active)
- GI50 (UACC-62): 1.87 µM (inactive)
- GI50 (CCRF-CEM): 0.492 µM (active)
- GI50 (HCT-116): 1.53 µM (inactive)
- GI50 (M14): 1.48 µM (inactive)
- GI50 (SN12C): 2.81 µM (inactive)
- GI50 (Hs-578T): 15.1 µM (inactive)
- GI50 (SK-MEL-28): 1.51 µM (inactive)
- GI50 (TK-10): 0.309 µM (active)
- GI50 (SK-MEL-2): 10.5 µM (inactive)
- GI50 (T47D): 3.37 µM (inactive)
- GI50 (HOP-92): 1.27 µM (inactive)
- GI50 (HL-60): 0.818 µM (active)
- GI50 (SNB-19): 2.08 µM (inactive)
- GI50 (HOP-62): 1.52 µM (inactive)
- GI50 (Malme-3M): 3.35 µM (inactive)
- GI50 (DU-145): 1.97 µM (inactive)
- GI50 (HT-29): 2.56 µM (inactive)
- GI50 (MDA-MB-231): 6.04 µM (inactive)
- GI50 (SNB-75): 4.91 µM (inactive)
- GI50 (SW-620): 4.93 µM (inactive)

SMILES: COc1ccc(/N=N/C(=O)NC(CC(C)C)C(=O)NC(C)C(=O)O)cc1 (stereo not given)
- GI50 (SR): 12.7 µM (inactive)
- GI50 (PC-3): 4.72 µM (inactive)
- GI50 (UO-31): 2.38 µM (inactive)
- GI50 (OVCAR-5): > 100 µM (inactive)
- GI50 (OVCAR-4): > 69.5 µM (inactive)
- GI50 (MOLT-4): 4.22 µM (inactive)
- GI50 (IGROV-1): 18.6 µM (inactive)
- GI50 (COLO 205): 3.2 µM (inactive)
- GI50 (OVCAR-3): 28.8 µM (inactive)
- GI50 (RXF 393): > 100 µM (inactive)
- GI50 (SF-539): 2.04 µM (inactive)
- GI50 (OVCAR-8): > 43.1 µM (inactive)
- GI50 (LOX IMVI): 4.68 µM (inactive)
- GI50 (A549): 3.32 µM (inactive)
- GI50 (EKVX): 30 µM (inactive)
- GI50 (A498): > 100 µM (inactive)
- GI50 (CAKI-1): > 100 µM (inactive)
- GI50 (MDA-MB-435): 1.98 µM (inactive)
- GI50 (RPMI-8226): 20.8 µM (inactive)
- GI50 (HCC 2998): 4.46 µM (inactive)
- GI50 (MDA-N): 10.8 µM (inactive)
- GI50 (UACC-257): 23 µM (inactive)
- GI50 (SF-268): > 24.3 µM (inactive)
- GI50 (NCI-H226): > 75.2 µM (inactive)
- GI50 (KM12): 29 µM (inactive)
- GI50 (HCT-15): 1.3 µM
- GI50 (786-0): > 100 µM (inactive)
- GI50 (K562): 1.54 µM (inactive)
- GI50 (NCI/ADR-RES): > 67.9 µM (inactive)
- GI50 (NCI-H23): > 86.5 µM (inactive)
- GI50 (MCF7): 27.5 µM (inactive)
- GI50 (SF-295): 9.82 µM (inactive)
- GI50 (ACHN): 1.53 µM (inactive)
- GI50 (SK-MEL-5): 5.7 µM (inactive)
- GI50 (BT-549): 52.8 µM (inactive)
- GI50 (NCI-H460): 9.66 µM (inactive)
- GI50 (U-251): > 100 µM (inactive)
- GI50 (UACC-62): 0.968 µM (active)
- GI50 (CCRF-CEM): 6.28 µM (inactive)
- GI50 (HCT-116): > 34.4 µM (inactive)
- GI50 (M14): 1.29 µM (inactive)
- GI50 (SN12C): > 20.4 µM (inactive)
- GI50 (Hs-578T): > 79.3 µM (inactive)
- GI50 (SK-MEL-28): 17.1 µM (inactive)
- GI50 (TK-10): > 29.9 µM (inactive)
- GI50 (SK-MEL-2): > 35.8 µM (inactive)
- GI50 (T47D): 3.63 µM (inactive)
- GI50 (HOP-92): > 100 µM (inactive)
- GI50 (HL-60): 6.22 µM (inactive)
- GI50 (SNB-19): > 100 µM (inactive)
- GI50 (HOP-62): > 59.6 µM (inactive)
- GI50 (Malme-3M): 29.2 µM (inactive)
- GI50 (DU-145): 6.25 µM (inactive)
- GI50 (HT-29): > 40 µM (inactive)
- GI50 (MDA-MB-231): > 23.4 µM (inactive)
- GI50 (SNB-75): > 100 µM (inactive)
- GI50 (SW-620): 16.9 µM (inactive)
